Values quoted from earlier work as cited in patent US20220275055A1, “DRUG TARGET OF IDIOPATHIC PULMONARY FIBROSIS” (National Institute of Biological Sciences, Beijing, priority 2019, published 2022).

Settings: idiopathic pulmonary fibrosis (IPF); background statement

Row | Structure (SMILES) | survival time
1 | COC(=O)c1ccc2c(c1)NC(=O)/C2=C(\Nc1ccc(N(C)C(=O)CN2CCN(C)CC2)cc1)c1ccccc1 [nintedanib] | failed to show significantly increased survival time
2 | Cc1ccc(=O)n(-c2ccccc2)c1 [pirfenidone] | failed to show significantly increased survival time
